pEC50: −log10 of the molar value. Read-outs that look alike come from different tables or passages of the source.
How the values were obtained:
F35T cells = test: Foci reduction in FECD (CAG10-Cy3 FISH, foci per nucleus); assay type: cell-based
Outline: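 F35T cells, 5000 per well, were treated for 48 h at 37 °C, 5% CO2 in an 8-point dose response. Cells were then fixed in 4% PFA, permeabilized in 70% ethanol and hybridized overnight at 37 °C with a CAG10-Cy3 probe in 30% formamide/2×SSC. After DAPI staining, imaging gave foci per nucleus.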

[1] = tested on: Myotonic Dystrophy 1 affected patient fibroblasts (Coriel GM04602; 1600 CTG repeats); test: DM1 foci reduction assay (EC50 assay; CAG10-Cy3 FISH, foci per nucleus); assay type: cell-based
Outline: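 GM04602 DM1 patient fibroblasts (1600 CTG repeats) seeded 24 h, then treated 48 h at 37 °C with an 8-point 1:3 dose series from 3 μM. Cells PFA-fixed, ethanol-permeabilized and hybridized overnight with 5 nM CAG10-Cy3 probe, DAPI counterstained. Imaged at 20×, 4 fields per well, as average foci per nucleus.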

[2] = F35T cells, 48 h treatment, foci per nucleus; read-out: FECD EC50, 48 h
[3] = Homo sapiens, Fibroblast; DM1 patient fibroblasts, 48 h treatment, foci per nucleus; read-out: DM1 EC50, 48 h
[4] = 48 h, read-out: FECD EC50, 48 h (nM)
[5] = Homo sapiens, Fibroblast, 48 h, read-out: DM1 EC50, 48 h (nM)
[6] = F35T cells, foci per nucleus, 48 h treatment; read-out: FECD EC50, 48 h
[7] = Homo sapiens, Fibroblast; DM1 patient fibroblasts, foci per nucleus, 48 h treatment; read-out: DM1 EC50, 48 h

CN(CCCNC(=O)c1cccc(C(=O)O)c1)CCCNC(=O)c1cc(NC(=O)CCNC(=O)c2nc(NC(=O)CCCNC(=O)c3cc(NC(=O)c4nc(NC(=O)CCNC(=O)c5cc(NC(=O)c6nccn6C)cn5C)cn4C)cn3CCCCCCN=[N+]=[N-])cn2C)cn1C [Compound B-253]
pEC50 (F35T cells; [2]): < 6.00 | pEC50 [1, 3]: < 6.00

CCN(CC)CCCC[C@H](NC(C)=O)C(=O)Nc1ccc(OCCOCCOCCOCCOCCOCCOCCNC(=O)CCNC(=O)c2nc(NC(=O)c3cc(NC(=O)CCNC(=O)c4nc(NC(=O)CCCNC(=O)c5cc(NC(=O)c6nc(NC(=O)CCNC(=O)c7cc(NC(=O)c8nccn8C)cn7C)cn6C)cn5C)cn4C)cn3C)cn2C)cc1 [Compound B-144]
pEC50 (F35T cells; [2]): 6.00 to 6.30 | pEC50 [1, 3]: 6.00 to 6.30

CCOC(=O)CCNC(=O)c1nc(NC(=O)c2cc(NC(=O)CCNC(=O)c3nc(NC(=O)[C@H](N)CCNC(=O)c4cc(NC(=O)c5nc(NC(=O)CCNC(=O)c6cc(NC(=O)c7nccn7C)cn6C)cn5C)cn4C)cn3C)cn2C)cn1C [Compound B-2]
pEC50 (F35T cells; [2]): 6.30 to 7.00 | pEC50 [1, 3]: 6.30 to 7.00

Cn1cc(NC(=O)c2nc(NC(=O)CCNC(=O)c3cc(NC(=O)c4nccn4C)cn3C)cn2C)cc1C(=O)NCCCC(=O)Nc1cn(C)c(C(=O)NCCC(=O)Nc2cc(C(=O)Nc3cn(C)c(C(=O)NCCC(=O)NC4COP(=O)(Oc5ccccc5Cl)OC4)n3)n(C)c2)n1 (centres unmarked) [Compound B-391]
EC50 (F35T cells; [4]): > 1000 nM | EC50 [1, 5]: > 1000 nM

CN1CCN(C(=O)CCNC(=O)c2nc(NC(=O)c3cc(NC(=O)CCNC(=O)c4nc(NC(=O)C[C@H](CNC(=O)c5cc(NC(=O)c6nc(NC(=O)CCNC(=O)c7cc(NC(=O)c8nccn8C)cn7C)cn6C)cn5C)NC(=O)c5ccccc5)cn4C)cn3C)cn2C)CC1 [Compound B-417]
pEC50 (F35T cells; [6]): > 7.00 | pEC50 [1, 7]: 6.30 to 7.00

CC(Nc1cc(C(=O)NCCC(=O)Nc2cn(C)c(C(=O)Nc3cc(C(=O)NCCCC(=O)Nc4cn(C)c(C(=O)Nc5cc(C(=O)NCCC(=O)Nc6cn(C)c(C(=O)NCCC(=O)NCCCCN=[N+]=[N-])n6)n(C)c5)n4)n(C)c3)n2)n(C)c1)c1nccn1C (centres unmarked) [Compound B-75]
pEC50 (F35T cells; [2]): < 6.00 | pEC50 [1, 3]: 6.00 to 6.30

CN(C)C(=NCCCNC(=O)c1nc(NC(=O)c2cc(NC(=O)CCNC(=O)c3nc(NC(=O)CCCNC(=O)c4cc(NC(=O)c5nc(NC(=O)CCNC(=O)c6cc(NC(=O)c7nccn7C)cn6C)cn5C)cn4C)cn3C)cn2C)cn1C)N(C)C [Compound B-206]
pEC50 (F35T cells; [2]): 6.30 to 7.00 | pEC50 [1, 3]: 6.30 to 7.00

Cn1cc(NC(=O)c2nc(NC(=O)CCNC(=O)c3cc(NC(=O)c4nccn4C)cn3C)cn2C)cc1C(=O)NCCCC(=O)Nc1cn(C)c(C(=O)NCCC(=O)Nc2cc(C(=O)Nc3cn(C)c(C(=O)NCCC(=O)N4CC=C(C#CC5CCN(C(=O)OC(C)(C)C)CC5)CC4)n3)n(C)c2)n1 [Compound B-347]
pEC50 (F35T cells; [2]): 6.30 to 7.00 | pEC50 [1, 3]: > 7.00

COC(=O)CCCN(CCCC(=O)OC)Cc1ncc(C2CN(C(=O)CCNC(=O)c3nc(NC(=O)c4cc(NC(=O)CCNC(=O)c5nc(NC(=O)CCCNC(=O)c6cc(NC(=O)c7nc(NC(=O)CCNC(=O)c8cc(NC(=O)c9nccn9C)cn8C)cn7C)cn6C)cn5C)cn4C)cn3C)C2)[nH]1 [Compound B-369]
pEC50 (F35T cells; [2]): 6.30 to 7.00 | pEC50 [1, 3]: < 6.00

CCCNC(=O)CCNC(=O)c1nc(NC(=O)c2cc(NC(=O)CCNC(=O)c3nc(NC(=O)CCCNC(=O)c4cc(NC(=O)c5nc(NC(=O)CCNC(=O)c6cc(NC(=O)c7nccn7C)cn6C)cn5C)cn4CCCCCN)cn3C)cn2C)cn1C [Compound B-286]
pEC50 (F35T cells; [2]): > 7.00 | pEC50 [1, 3]: 6.30 to 7.00

CN1CCC(N2CCN(C(=O)CCNC(=O)c3nc(NC(=O)c4cc(NC(=O)CCNC(=O)c5nc(NC(=O)CCCNC(=O)c6cc(NC(=O)c7nc(NC(=O)CCNC(=O)c8cc(NC(=O)c9nccn9C)cn8C)cn7C)cn6C)cn5C)cn4C)cn3C)CC2)CC1 [Compound B-120]
pEC50 (F35T cells; [2]): < 6.00 | pEC50 [1, 3]: 6.00 to 6.30

Cn1cc(NC(=O)c2nc(NC(=O)CCNC(=O)c3cc(NC(=O)c4nccn4C)cn3C)cn2C)cc1C(=O)NCCCC(=O)Nc1cn(C)c(C(=O)NCCC(=O)Nc2cc(C(=O)Nc3cn(C)c(C(=O)NCCC(=O)N4CCC(C#CC5=CCN(C(=O)OCC6c7ccccc7-c7ccccc76)CC5)CC4)n3)n(C)c2)n1 [Compound B-345]
pEC50 (F35T cells; [2]): 6.00 to 6.30 | pEC50 [1, 3]: < 6.00

CCCNC(=O)c1cc(NC(=O)CCNC(=O)c2nc(NC(=O)CCCNC(=O)c3cc(NC(=O)c4nc(NC(=O)CCNC(=O)c5cc(NC(=O)c6nccn6C)cn5C)cn4C)cn3C)cn2C)cn1C [Compound B-209]
pEC50 (F35T cells; [2]): < 6.00 | pEC50 [1, 3]: < 6.00

Cn1cc(NC(=O)c2nc(NC(=O)CCNC(=O)c3cc(NC(=O)c4nccn4C)cn3C)cn2C)cc1C(=O)NCCCC(=O)Nc1cn(C)c(C(=O)NCCC(=O)Nc2cc(C(=O)Nc3cn(C)c(C(=O)NCCC(=O)NC(CO)COP(=O)(O)Oc4ccccc4Cl)n3)n(C)c2)n1 (centres unmarked) [Compound B-394]
EC50 (F35T cells; [4]): 500 to 1000 nM | EC50 [1, 5]: 100 to 500 nM

CCCNC(=O)CCNC(=O)c1nc(NC(=O)c2cc(NC(=O)CCNC(=O)c3nc(NC(=O)CCCNC(=O)c4cc(NC(=O)c5nc(NC(=O)CCNC(=O)c6cc(NC(=O)c7nccn7C)cn6C)cn5C)cn4CCCCCNC(=O)C(C)(C)C)cn3C)cn2C)cn1C [Compound B-398]
pEC50 (F35T cells; [2]): 6.30 to 7.00 | pEC50 [1, 3]: 6.30 to 7.00

Cn1cc(NC(=O)c2nc(NC(=O)CCNC(=O)c3cc(NC(=O)c4nccn4C)cn3C)cn2C)cc1C(=O)NCCCC(=O)Nc1cn(C)c(C(=O)NCCC(=O)Nc2cc(C(=O)Nc3cn(C)c(C(=O)NCCCN=C(N)N)n3)n(C)c2)n1 [Compound B-205]
pEC50 (F35T cells; [2]): > 7.00 | pEC50 [1, 3]: > 7.00

Cn1cc(NC(=O)c2nc(NC(=O)CCNC(=O)c3cc(NC(=O)c4nccn4C)cn3C)cn2C)cc1C(=O)NCCCC(=O)Nc1cn(C)c(C(=O)NCCC(=O)Nc2cc(C(=O)Nc3cn(C)c(C(=O)NCCC(=O)NCCOCCOCCOCCN4CCC(C#CC#CC5CCN(C(=O)c6ccc(C(C)(C)C)cc6)CC5)CC4)n3)n(C)c2)n1 [Compound B-175]
pEC50 (F35T cells; [2]): 6.30 to 7.00 | pEC50 [1, 3]: 6.30 to 7.00

CN(C)CCCCNC(=O)c1nc(NC(=O)c2cc(NC(=O)CCNC(=O)c3nc(NC(=O)C[C@@H](N)CNC(=O)c4cc(NC(=O)c5nc(NC(=O)CCNC(=O)c6cc(NC(=O)c7nccn7C)cn6C)cn5C)cn4C)cn3C)cn2C)cn1C [Compound B-422]
pEC50 (F35T cells; [6]): < 6.00 | pEC50 [1, 7]: < 6.00

CN1CCN(C2CCN(C(=O)CCNC(=O)c3nc(NC(=O)c4cc(NC(=O)CCNC(=O)c5nc(NC(=O)CCCNC(=O)c6cc(NC(=O)c7nc(NC(=O)CCNC(=O)c8cc(NC(=O)c9nccn9C)cn8C)cn7C)cn6C)cn5C)cn4C)cn3C)CC2)CC1 [Compound B-131]
pEC50 (F35T cells; [2]): > 7.00 | pEC50 [1, 3]: 6.30 to 7.00

CCCNC(=O)CCNC(=O)c1nc(NC(=O)c2cc(NC(=O)CCNC(=O)c3nc(NC(=O)CCCNC(=O)c4cc(NC(=O)c5nc(NC(=O)CCNC(=O)c6cc(NC(=O)c7nccn7C)cn6C)cn5C)cn4CCCOCCN)cn3C)cn2C)cn1C [Compound B-301]
pEC50 (F35T cells; [2]): > 7.00 | pEC50 [1, 3]: 6.30 to 7.00

CCOC(=O)c1nc(NC(=O)c2cc(NC(=O)CCNC(=O)c3nc(NC(=O)CCCNC(=O)c4cc(NC(=O)c5nc(NC(=O)CCNC(=O)c6cc(NC(=O)c7nccn7C)cn6C)cn5C)cn4CCCCCCN=[N+]=[N-])cn3C)cn2C)c[nH]1 [Compound B-373]
pEC50 (F35T cells; [2]): < 6.00 | pEC50 [1, 3]: < 6.00

CN1CCN(C(=O)CCNC(=O)c2nc(NC(=O)c3cc(NC(=O)CCNC(=O)c4nc(NC(=O)[C@H](N)CCNC(=O)c5cc(NC(=O)c6nc(NC(=O)CCNC(=O)c7cc(NC(=O)c8nccn8C)cn7C)cn6C)cn5C)cn4C)cn3C)cn2C)CC1 [Compound B-405]
pEC50 (F35T cells; [2]): < 6.00 | pEC50 [1, 3]: < 6.00

COCCOCCOCCOCCN(CCOCCOCCOCCOC)C(=O)CCNC(=O)c1nc(NC(=O)c2cc(NC(=O)CCNC(=O)c3nc(NC(=O)CCCNC(=O)c4cc(NC(=O)c5nc(NC(=O)CCNC(=O)c6cc(NC(C)c7nccn7C)cn6C)cn5C)cn4C)cn3C)cn2C)cn1C (centres unmarked) [Compound B-79]
pEC50 (F35T cells; [2]): < 6.00 | pEC50 [1, 3]: 6.30 to 7.00

Cn1cc(NC(=O)c2nc(NC(=O)CCNC(=O)c3cc(NC(=O)c4nccn4C)cn3C)cn2C)cc1C(=O)NCCCC(=O)Nc1cn(C)c(C(=O)NCCC(=O)Nc2cc(C(=O)Nc3cn(C)c(C(=O)NCCC(=O)NC(CO)CO)n3)n(C)c2)n1 [Compound B-333]
pEC50 (F35T cells; [2]): 6.30 to 7.00 | pEC50 [1, 3]: 6.00 to 6.30

CCN(CC)CCCC[C@@H](NC(C)=O)C(=O)Nc1ccc(OCCOCCOCCNC(=O)CCNC(=O)c2nc(NC(=O)c3cc(NC(=O)CCNC(=O)c4nc(NC(=O)CCCNC(=O)c5cc(NC(=O)c6nc(NC(=O)CCNC(=O)c7cc(NC(=O)c8nccn8C)cn7C)cn6C)cn5C)cn4C)cn3C)cn2C)cc1 [Compound B-148]
pEC50 (F35T cells; [2]): 6.30 to 7.00 | pEC50 [1, 3]: < 6.00

CCCNC(=O)CCNC(=O)c1nc(NC(=O)c2cc(NC(=O)CCNC(=O)c3nc(NC(=O)CCCNC(=O)c4cc(NC(=O)c5nc(NC(=O)CCNC(=O)c6cc(NC(=O)c7nccn7C)cn6C)cn5C)cn4CCCOC(=O)c4ccccc4)cn3C)cn2C)cn1C [Compound B-432]
pEC50 (F35T cells; [6]): > 7.00 | pEC50 [1, 7]: > 7.00

CCN(CC)CCCC[C@H](NC(=O)c1ccc(C(C)(C)C)cc1)C(=O)NCCOCCOCCOCCOCCOCCNC(=O)CCNC(=O)c1nc(NC(=O)c2cc(NC(=O)CCNC(=O)c3nc(NC(=O)CCCNC(=O)c4cc(NC(=O)c5nc(NC(=O)CCNC(=O)c6cc(NC(=O)c7nccn7C)cn6C)cn5C)cn4C)cn3C)cn2C)cn1C [Compound B-92]
pEC50 (F35T cells; [2]): 6.00 to 6.30 | pEC50 [1, 3]: 6.30 to 7.00

CCCNC(=O)CCNC(=O)c1nc(NC(=O)c2cc(NC(=O)CCNC(=O)c3nc(NC(=O)C[C@@H](N)CNC(=O)c4cc(NC(=O)c5nc(NC(=O)CCNC(=O)c6cc(NC(=O)c7nccn7C)cn6C)cn5C)cn4C)cn3C)cn2C)cn1C [Compound B-415]
pEC50 (F35T cells; [6]): 6.30 to 7.00 | pEC50 [1, 7]: 6.30 to 7.00
